# From US20240116985A1, “STAPLED PEPTIDES AND METHODS THEREOF” (priority 2020, published 2024)
# Where two headings read alike, the source gives them in different places.
# What was measured:
# CHI Log D procedure = assay type: physicochemical; details: for CHI Log D: pH 7.4; for chromatographic logD: pH 7.4, CHI Log D
# [1] = target: T1, full-length beta-Catenin (Uniprot ID P35222) (Homo sapiens, UniProt P35222); assay: Fluorescence polarization IC50 (beta-catenin / 5FAM-TCF4 10-53 competition); assay type: binding
# T1 construct: 10 nM full-length beta-Catenin (Uniprot ID P35222)
# T1 sequence (P35222 1-781): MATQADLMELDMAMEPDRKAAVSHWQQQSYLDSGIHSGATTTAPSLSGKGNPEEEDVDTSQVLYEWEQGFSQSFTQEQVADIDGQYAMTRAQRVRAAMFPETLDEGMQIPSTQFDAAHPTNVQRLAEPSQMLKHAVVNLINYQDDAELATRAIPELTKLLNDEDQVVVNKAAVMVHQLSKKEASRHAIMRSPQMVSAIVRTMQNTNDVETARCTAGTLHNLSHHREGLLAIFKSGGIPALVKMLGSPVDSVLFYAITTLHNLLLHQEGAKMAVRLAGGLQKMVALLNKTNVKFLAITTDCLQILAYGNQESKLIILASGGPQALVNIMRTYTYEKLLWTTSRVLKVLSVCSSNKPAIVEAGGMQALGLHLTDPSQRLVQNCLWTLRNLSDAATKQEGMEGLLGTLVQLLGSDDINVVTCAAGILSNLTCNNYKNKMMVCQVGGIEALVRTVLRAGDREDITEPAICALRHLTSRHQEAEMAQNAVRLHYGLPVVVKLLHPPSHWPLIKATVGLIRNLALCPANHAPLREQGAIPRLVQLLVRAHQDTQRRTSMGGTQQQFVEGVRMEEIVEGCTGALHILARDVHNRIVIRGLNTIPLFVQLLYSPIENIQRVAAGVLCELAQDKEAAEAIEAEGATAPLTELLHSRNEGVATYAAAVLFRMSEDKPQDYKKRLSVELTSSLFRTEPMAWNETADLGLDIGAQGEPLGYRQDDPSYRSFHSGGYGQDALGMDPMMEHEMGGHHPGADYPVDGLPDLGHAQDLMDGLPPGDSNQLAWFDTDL
# Solubility in PBS = assay type: physicochemical
# Summary of the method: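 Solubility is derived from HPLC peak areas: the ratio of the PBS supernatant peak to a 50 μM DMSO peptide peak, times 50 uM.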
# [2] = fluorescence polarization, beta-catenin, read-out: FP EC50
# [3] = fluorescence polarization, read-out: beta-Catenin FP IC50
CHI Log D (CHI Log D procedure),"IC50 ([1]; Table E2-1, read-out: beta-Catenin FP IC50) [nM]","IC50 [1, 2] [nM]",Solubility (Solubility in PBS) [µM],IC50 ([1]; read-out: beta-Catenin FP IC50) [nM],chromatographic logD (CHI Log D procedure),Solubility (Solubility in PBS; Solubility (uM)) [µM],"IC50 [1, 3] [nM]",IC50 ([1]; read-out: FP EC50) [nM],Structure (SMILES)
2.218,,1260,33,1260,,,,,"CC(=O)N1CCC[C@]12CC=CCCCC1(CCCC=CCCCOC(=O)N3CC[C@@](C(=O)N[C@@H](Cc4ccccc4Cl)C(=O)N[C@@H](Cc4csc5ccccc45)C(=O)N[C@H](C(N)=O)[C@@H](C)O)(C3)NC(=O)[C@H](CC(C)C)NC(=O)[C@H](Cc3ccccc3)NC(=O)[C@H](C)NC(=O)[C@H](C)NC(=O)[C@H](CCC(=O)O)NC(=O)[C@H](CC(=O)O)NC1=O)NC(=O)[C@H](CC(C)(C)C)NC(=O)[C@H](CC(=O)O)NC2=O (stereo partly drawn) [I-1071, Ac-PL3-Asp-Npg-B5-Asp-Glu-Ala-Ala-Phe-Leu-PyrS2-2C1F-BztA-Thr-NH2]"
,,,,57,2.65,20,,,"CC(=O)N1CCC[C@]12CC=CCCCC1(CCCC=CCCCOC(=O)N3CC[C@@](C(=O)N[C@@H](Cc4ccccc4Cl)C(=O)N[C@@H](Cc4csc5ccccc45)C(=O)N[C@@H](C(N)=O)[C@H](C)O)(C3)NC(=O)[C@H](CC(C)C)NC(=O)[C@H](Cc3ccccc3)NC(=O)[C@H](C)NC(=O)[C@H](C)NC(=O)[C@H](CCC(=O)O)NC(=O)[C@H](CC(=O)O)NC1=O)NC(=O)[C@H](CC(C)(C)C)NC(=O)[C@H](CC(=O)O)NC2=O (stereo partly drawn) [I-1039, Ac-PL3-Asp-Npg-B5-Asp-Glu-Ala-Ala-Phe-Leu-PyrS2-2C1F-BztA-dThr-NH2]"
2.098,,,40,,,,4480,4480,"CC(=O)N1CCC[C@]12CC=CCCCC1(CCCC=CCCCCCC[C@@](C)(C(=O)N[C@@H](CCc3ccccc3)C(=O)N[C@@H](Cc3csc4ccccc34)C(=O)N[C@@H](CCC(N)=O)C(N)=O)NC(=O)[C@H](CC(N)=O)NC(=O)[C@H](Cc3ccccc3)NC(=O)[C@H](C)NC(=O)[C@H](C)NC(=O)[C@H](CCC(=O)O)NC(=O)[C@H](CC(=O)O)NC1=O)NC(=O)[C@H](C)NC(=O)[C@H](CC(=O)O)NC2=O (stereo partly drawn) [I-442, Ac-PL3-Asp-Ala-B5-Asp-Glu-Ala-Ala-Phe-Asn-S8-hPhe-BztA-Gln-NH2]"
2.571,,,47,47,,,,47,"CC(=O)N1CCC[C@]12CC=CCCCC1(CCCC=CCCCCCC[C@@](C)(C(=O)N[C@@H](Cc3ccccc3)C(=O)N[C@@H](Cc3csc4ccccc34)C(=O)N[C@H](CC(N)=O)C(N)=O)NC(=O)[C@H](CC(N)=O)NC(=O)[C@H](Cc3ccccc3)NC(=O)[C@H](C)NC(=O)[C@H](C)NC(=O)[C@H](CCC(=O)O)NC(=O)[C@H](CC(=O)O)NC1=O)NC(=O)[C@H](CC(C)C)NC(=O)[C@H](CC(=O)O)NC2=O (stereo partly drawn) [I-758, Ac-PL3-Asp-Leu-B5-Asp-Glu-Ala-Ala-Phe-Asn-S8-Phe-BztA-dAsn-NH2]"
,,,50,,2.57,,189,,"CCCC[C@@H]1NC(=O)[C@H](CC(=O)O)NC(=O)[C@]2(CC=CCCCC3(CCCC=CCCCCCC[C@@](C)(C(=O)N[C@@H](Cc4ccccc4)C(=O)N[C@@H](Cc4csc5ccccc45)C(=O)N[C@@H](CCC(N)=O)C(N)=O)NC(=O)[C@H](C)NC(=O)[C@H](Cc4ccccc4)NC(=O)[C@H](C)NC(=O)[C@H](C)NC(=O)[C@H](CCC(=O)O)NC(=O)[C@H](CC(=O)O)NC3=O)NC1=O)CCCN2C(C)=O (stereo partly drawn) [I-411, Ac-PL3-Asp-nLeu-B5-Asp-Glu-Ala-Ala-Phe-Ala-S8-Phe-BztA-Gln-NH2]"
2.277,,,43,,,,102,102,"CC[C@@H](C)[C@@H]1NC(=O)[C@H](CC(=O)O)NC(=O)[C@]2(CC=CCCCC3(CCCC=CCCCCCC[C@@](C)(C(=O)N[C@@H](Cc4ccccc4)C(=O)N[C@@H](Cc4csc5ccccc45)C(=O)N[C@@H](CCC(N)=O)C(N)=O)NC(=O)[C@H](CC(N)=O)NC(=O)[C@H](Cc4ccccc4)NC(=O)[C@H](C)NC(=O)[C@H](C)NC(=O)[C@H](CCC(=O)O)NC(=O)[C@H](CC(=O)O)NC3=O)NC1=O)CCCN2C(C)=O (stereo partly drawn) [I-475, Ac-PL3-Asp-aIle-B5-Asp-Glu-Ala-Ala-Phe-Asn-S8-Phe-BztA-Gln-NH2]"
2.013,,2430,47,2430,,,,,"CC(=O)N1CCC[C@]12CC=CCCCC1(CCCC=CCCCOC(=O)N3CC[C@@](C(=O)N[C@@H](Cc4ccsc4)C(=O)N[C@@H](Cc4csc5ccccc45)C(=O)N[C@@H](C(N)=O)[C@H](C)O)(C3)NC(=O)[C@H](CC(N)=O)NC(=O)[C@H](Cc3ccccc3)NC(=O)[C@H](C)NC(=O)[C@H](C)NC(=O)[C@H](CN(CC(=O)O)CC(F)(F)F)NC(=O)[C@H](CC(=O)O)NC1=O)NC(=O)[C@H](CC(C)(C)C)NC(=O)[C@H](CC(=O)O)NC2=O (stereo partly drawn) [I-948, Ac-PL3-Asp-Npg-B5-Asp-TfeGA-Ala-Ala-Phe-Asn-PyrS2-3Thi-BztA-dThr-NH2]"

# Continued, compound first:
Structure (SMILES),CHI Log D (CHI Log D procedure),"IC50 ([1]; Table E2-1, read-out: beta-Catenin FP IC50) [nM]","IC50 [1, 2] [nM]",Solubility (Solubility in PBS) [µM],IC50 ([1]; read-out: beta-Catenin FP IC50) [nM],chromatographic logD (CHI Log D procedure),Solubility (Solubility in PBS; Solubility (uM)) [µM],"IC50 [1, 3] [nM]",IC50 ([1]; read-out: FP EC50) [nM]
"CC(=O)N1CCC[C@]12CC=CCCCC1(CCCC=CCCCCCC[C@@](C)(C(=O)N[C@@H](Cc3cccc(F)c3)C(=O)N[C@@H](Cc3csc4ccccc34)C(=O)N[C@@H](CCC(N)=O)C(N)=O)NC(=O)[C@H](C(C)C)NC(=O)[C@H](Cc3ccccc3)NC(=O)[C@H](C)NC(=O)[C@H](C)NC(=O)[C@H](CC(N)=O)NC(=O)[C@H](CC(=O)O)NC1=O)NC(=O)[C@H](C)NC(=O)[C@H](CC(=O)O)NC2=O (stereo partly drawn) [I-381, Ac-PL3-Asp-Ala-B5-Asp-Asn-Ala-Ala-Phe-Val-S8-3FF-BztA-Gln-NH2]",2.636,3650,3650,10,,,,,
"CC(=O)N1CCC[C@]12CC=CCCCC1(CCCC=CCCCOC(=O)N3CC[C@@](C(=O)N[C@@H](Cc4ccsc4)C(=O)N[C@@H](Cc4csc5ccccc45)C(=O)N[C@@H](CO)C(N)=O)(C3)NC(=O)[C@H](CC(C)C)NC(=O)[C@H](Cc3ccccc3)NC(=O)[C@H](C)NC(=O)[C@H](C)NC(=O)[C@H](Cc3cccc(C(=O)O)c3)NC(=O)[C@H](CC(=O)O)NC1=O)NC(=O)[C@H](CC(C)(C)C)NC(=O)[C@H](CC(=O)O)NC2=O (stereo partly drawn) [I-986, Ac-PL3-Asp-Npg-B5-Asp-3COOHF-Ala-Ala-Phe-Leu-PyrS2-3Thi-BztA-Ser-NH2]",1.855,,136,27,136,,,,
"CC[C@H](C)[C@@H]1NC(=O)[C@H](CC(=O)O)NC(=O)[C@]2(CC=CCCCC3(CCCC=CCCCCCC[C@@](C)(C(=O)N[C@@H](Cc4ccccc4)C(=O)N[C@@H](Cc4csc5ccccc45)C(=O)N[C@@H](Cc4c[nH]cn4)C(N)=O)NC(=O)[C@H](CCC(N)=O)NC(=O)[C@H](Cc4ccccc4)NC(=O)[C@H](C)NC(=O)[C@H](C)NC(=O)[C@H](CCC(=O)O)NC(=O)[C@H](CC(=O)O)NC3=O)NC1=O)CCCN2C(C)=O (stereo partly drawn) [I-471, Ac-PL3-Asp-Ile-B5-Asp-Glu-Ala-Ala-Phe-Gln-S8-Phe-BztA-His-NH2]",,,,,,2.43,13,52,
"CC[C@H](C)[C@@H]1NC(=O)[C@H](CC(=O)O)NC(=O)[C@]2(CC=CCCCC3(CCCC=CCCCCCC[C@@](C)(C(=O)N[C@@H](Cc4ccccc4)C(=O)N[C@@H](Cc4csc5ccccc45)C(=O)N[C@@H](CCC(N)=O)C(N)=O)NC(=O)[C@H](CCC(N)=O)NC(=O)[C@H](Cc4ccccc4)NC(=O)[C@H](C)NC(=O)[C@H](Cc4c[nH]c5ccccc45)NC(=O)[C@H](CCC(=O)O)NC(=O)[C@H](CC(=O)O)NC3=O)NC1=O)CCCN2C(C)=O (stereo partly drawn) [I-655, Ac-PL3-Asp-Ile-B5-Asp-Glu-Trp-Ala-Phe-Gln-S8-Phe-BztA-Gln-NH2]",,,,,,2.69,46,183,
"CC(=O)N1CCC[C@]12CC=CCCCC1(CCCC=CCCCCCC[C@@](C)(C(=O)N[C@@H](Cc3ccccc3)C(=O)N[C@@H](Cc3csc4ccccc34)C(=O)N[C@@H](CCC(N)=O)C(N)=O)NC(=O)[C@H](CCC(N)=O)NC(=O)[C@H](Cc3ccccc3)NC(=O)[C@H](C)NC(=O)[C@H](C)NC(=O)[C@H](CCC(=O)O)NC(=O)[C@H](CC(=O)O)NC1=O)NC(=O)[C@H](CC(F)(F)F)NC(=O)[C@H](CC(=O)O)NC2=O (stereo partly drawn) [I-502, Ac-PL3-Asp-F3CA-B5-Asp-Glu-Ala-Ala-Phe-Gln-S8-Phe-BztA-Gln-NH2]",2.171,,,50,,,,55,55
"COc1ccccc1C[C@H](NC(=O)[C@]1(C)CCCCCCC=CCCCC2(CCCC=CC[C@]3(CCCN3C(C)=O)C(=O)N[C@@H](CC(=O)O)C(=O)N[C@@H](C)C(=O)N2)C(=O)N[C@@H](CC(=O)O)C(=O)N[C@@H](CCC(=O)O)C(=O)N[C@@H](C)C(=O)N[C@@H](C)C(=O)N[C@@H](Cc2ccccc2)C(=O)N[C@@H](CC(N)=O)C(=O)N1)C(=O)N[C@@H](Cc1csc2ccccc12)C(=O)N[C@@H](Cc1c[nH]cn1)C(N)=O (stereo partly drawn) [I-510, Ac-PL3-Asp-Ala-B5-Asp-Glu-Ala-Ala-Phe-Asn-S8-2OMeF-BztA-His-NH2]",2.057,,,43,,,,128,128
